Test results from paper PMC6930524, “A Prospective Repurposing of Dantrolene as a Multitarget Agent for Alzheimer’s Disease” (Molecules, 2019).

Tests used:
[1] = target: T1, human recombinant AChE (hAChE) (Homo sapiens, UniProt P22303); assay: biochemical; format: biochemical
T1 construct: purchased Sigma-Aldrich Europe (Milan, Italy)
Procedure: An already published method was used to apply the Ellman’s spectrophotometric assay to the 96-well plate technique. […] Experiments were performed in duplicate in transparent, flat-bottomed polystyrene 96-well microtiter plates, and readings made with Tecan Infinite M1000 Pro instrument.

SH-SY5Y cells = assay: DCF-DA assay of dopamine-induced ROS production; format: cell-based; conditions: dopamine 10 nM insult, compound 100 nM
Procedure: In order to get further information about the potential neuroprotective effects exerted by DAN, we tested it in a 2′,7′-dichlorofluorescin diacetate (DCF-DA) fluorescence-based assay, measuring the production of ROS induced by dopamine in cultured SH-SY5Y cells. Immortalized neuroblastoma cells are a widely used model for neuroprotection assays, while dopamine at a concentration of 10 nM acts as an inducer of oxidative stress, being metabolized by MAOs to form hydrogen peroxide. Once hydrolyzed and oxidized, DCF acts as the fluorescing probe of the OS state of cells. In the presence of an antioxidant, or even of a MAO inhibitor, ROS burden is lowered and DCF fluorescence decreased. […] Its activity is completely superimposable to that of phenelzine, a nonselective MAO inhibitor used as a positive control in Figure 5B [41]. […]
ROS production in SH-SY5Y cell line was detected using Cellular Reactive Oxygen Species Detection Assay Kit ([…]; Abcam, Cambridge, UK). […] After washing, the fluorescence was read immediately, and the readings were taken every 15 min in a 60-min time interval. Fluorescence signal at 535 nm (excitation at 485 nm) was measured using Tecan Infinite M1000 Pro (Tecan, Mannedorf, Switzerland).

[2] = target: T2, native CAC (mitochondrial rat liver extract) (Rattus norvegicus, UniProt P97521); assay: Transport activity of native CAC from mitochondrial extract reconstituted into liposomes; format: biochemical; conditions: after 30 min of incubation; concentration range 1–200 μM; read-out: EC50 of activation of native CAC
T2 construct: Mitochondrial rat liver extract (0.3 mg proteins in 3% Triton X-100) containing native CAC was reconstituted into liposomes; from tissue; host or cells: rat liver mitochondrial Triton X-100 extract
T2 sequence (P97521 1-301): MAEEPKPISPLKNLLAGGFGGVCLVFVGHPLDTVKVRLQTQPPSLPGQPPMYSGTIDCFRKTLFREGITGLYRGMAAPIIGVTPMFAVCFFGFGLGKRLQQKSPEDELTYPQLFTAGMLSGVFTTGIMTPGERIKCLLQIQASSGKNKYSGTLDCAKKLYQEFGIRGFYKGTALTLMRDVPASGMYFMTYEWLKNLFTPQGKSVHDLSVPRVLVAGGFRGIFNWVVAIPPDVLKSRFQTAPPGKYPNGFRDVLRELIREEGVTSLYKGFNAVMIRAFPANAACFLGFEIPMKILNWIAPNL
Procedure: To detect the effect of DAN on native CAC, mitochondrial extract was reconstituted into liposomes and transport activity was measured adding various concentrations of compound. In Figure 7A, the dose–response curve is shown. […] Thus, the effect of different concentrations of DAN was tested also on the purified recombinant wild-type (WT) CAC carrier reconstituted into liposomes, measuring the antiport rate of carnitine.
Mitochondrial rat liver extract (0.3 mg proteins in 3% Triton X-100) containing native CAC was reconstituted into liposomes by removing the detergent from the mixed micelles through a hydrophobic ion-exchange column containing the resin Amberlite XAD-4, as described previously. […]
Before starting the transport activity, proteoliposomes were passed through a Sephadex G-75 column (0.7 cm diameter; 15 cm height; Pharmacia, Milan, Italy) to remove the external substrate. […] Finally, the external substrate was removed by chromatography on Sephadex G-75 columns (0.7 cm diameter; 10 cm height) and intraliposomal radioactivity was measured by a liquid scintillation counter (Perkin Elmer, Milan, Italy).
EC50 values were calculated using AATBioquest EC50 calculator [60]. […]

T1 sequence (P22303 32-614): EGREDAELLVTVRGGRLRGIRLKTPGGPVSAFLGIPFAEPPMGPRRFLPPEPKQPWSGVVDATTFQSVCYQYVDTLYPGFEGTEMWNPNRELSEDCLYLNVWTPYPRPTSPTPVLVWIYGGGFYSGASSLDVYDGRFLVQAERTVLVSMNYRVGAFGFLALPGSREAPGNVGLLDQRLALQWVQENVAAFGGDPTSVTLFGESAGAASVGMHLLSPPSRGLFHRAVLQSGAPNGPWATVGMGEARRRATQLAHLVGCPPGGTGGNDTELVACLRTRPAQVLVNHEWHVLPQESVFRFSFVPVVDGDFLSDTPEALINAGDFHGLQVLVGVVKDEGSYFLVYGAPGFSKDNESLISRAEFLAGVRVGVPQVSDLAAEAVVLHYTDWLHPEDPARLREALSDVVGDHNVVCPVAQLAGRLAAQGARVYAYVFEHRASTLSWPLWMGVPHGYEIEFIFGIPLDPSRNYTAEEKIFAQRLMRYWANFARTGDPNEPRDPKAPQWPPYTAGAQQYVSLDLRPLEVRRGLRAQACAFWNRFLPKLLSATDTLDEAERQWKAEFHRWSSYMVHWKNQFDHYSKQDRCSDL

With O=C1CN(/N=C/c2ccc(-c3ccc([N+](=O)[O-])cc3)o2)C(O)=N1 [Dantrolene] the IC50 [1] was 4.19 ± 0.73 µM, the hAChE inhibition mechanism ([1]; Michaelis–Menten / Lineweaver–Burk, substrate acetylthiocoline) was “noncomp” and the “potency of AChE inhibition relative to galantamine” value ([1]; fold lower than reference compound galantamine) was “seven-fold lower”. The Ki ([1]; substrate acetylthiocoline, mean ± SEM) was 6.3 ± 0.15 µM, the “reduction of ROS oxidation of DCF” value (SH-SY5Y cells) was “very effective” and the EC50 [2] was 18 ± 5 µM.
